# According to US10064865B2, “Composition comprising phosphodiesterase type 5 inhibitor for inhibiting apoptosis of nerve cells” (ARIBIO INC., priority 2012, dated 2018):
# Marks after values point to notes of the source that are not given here.
# Tests used:
# [1] = Example 2 body weight measurements; type: in vivo, Sprague-Dawley (SD) rats; conditions: for Body weights at 29 days after surgery [B] / Weight gains [B − A]: 1 mg/kg s.c. once a day for 14 days; for Body weights at Before surgery / Body weights at surgery [A]: before treatment
# Procedure: Changes of body weight were measured at 1 day before neuron apoptosis, the day of neuron apoptosis, 1, 3, 7, 14, 21, 28 and 29 days after neuron apoptosis. […] Body weight gains (g) during 29 days after neuron apoptosis=(Body weight at the 29 days after neuron apoptosis−body weight at the day of neuron apoptosis) [EQUATION 5]
# All data were expressed as mean±standard deviation (S.D.) of ten rats. Multiple comparison tests for different dose groups were conducted. Variance homogeneity was examined using the Levene test (Levene A, Clin Otalary, 1981; 6:145-51). […] Statistical analyses were conducted using SPSS for Windows (Release 14K, SPSS Inc., USA; Ludbrook, Clin Exp Pharmacol Physiol, 1997; 24:294-6). In addition, the percent changes as compared with neuron apoptosis control and mirodenafil treated rats were calculated to help the understanding of the efficacy of test substances as follow Equation 6 and 7. Percentage Changes as Compared with Sham Control (%)=[((Data of neuron apoptosis control−Data of sham control rat)/Data of sham control rats)×100] [EQUATION 6] Percentage Changes as Compared with neuron apoptosis Control (%)=[((Data of test material treated rats−Data of neuron apoptosis control rats)/Data of neuron apoptosis control rats)×100] [EQUATION 7]
# [2] = Dissolution of test material in saline; type: physicochemical; conditions: mirodenafil 2HCl
# Procedure: The mirodenafil (mirodenafil 2HCl; SK Chemical Life Science Business, KR) was used in this experiment. […] Mirodenafil was stored at 4° C. in a refrigerator to protect from light and humidity until used. Three different dosages, 0.5, 1 and 2 mg/kg of mirodenafil were directly dissolved in saline and subcutaneously administered in a volume of 1 ml/kg on the dorsal back skins, once a day for 28 days from 24 hrs after stabilization periods from operation. In saline and neuron apoptosis control rats, equal volumes of saline as vehicle were administered, instead of mirodenafil, respectively.
# The mirodenafil (mirodenafil 2HCl; SK Chemical Life Science Business, KR) was used in this experiment. […] Mirodenafil was stored at 4° C. in a refrigerator to protect from light and humidity until used. Mirodenafil were directly dissolved in saline as 1 mg/ml concentrations, and subcutaneously administered in a volume of 1 ml/kg on the dorsal back skins from 24, 72 and 168 hrs after neuron apoptosis, once a day for 14 days, respectively. In saline and neuron apoptosis control rats, equal volumes of saline as vehicle were administered, instead of mirodenafil from 24 hrs after neuron apoptosis for 20 days, respectively.
# PARP = assay: Example 1 immunohistochemistry: PARP-immunoreactive cells; type: in vivo, Sprague-Dawley (SD) rats; conditions: for Numbers of neurons: PARP+: 29 days after neuron apoptosis
# Procedure: The induction of neuron apoptosis was carried out by damaging the right hemisphere of the brain of animals. Specifically, animals were anesthetized with 2 or 3% isoflurane in the mixture of 70% N2O and 28.5% O2, and were maintained with 1 to 1.5% isoflurane in the mixture of 70% N2O and 28.5% O2. After that the temporalis muscle was bisected and reflected through an incision made midway between the eye and the eardrum canal. The proximal MCA was exposed through a subtemporal craniectomy by microdental drills without removing the zygomatic arch and without transecting the facial nerve. […] Mortality was less than 5%. For sham control, all procedures were performed in the same way, with the exception of the occlusion of the MCA.
# After deparraffinized of cerebral histological paraffin sections, citrate buffer antigen (epitope) retrieval pretreatment were conducted as previously (Shi S R et al., J Histochem Cytochem. 41:1599-604(1993)). Briefly, pre-heat water bath with staining dish containing 10 mM citrate buffers (pH 6.0) until temperature reaches 95-100° C. Immerse slides in the staining dish and place the lid loosely on the staining dish. Incubate for 20 minutes and turn off the water bath. Place the staining dish at room temperature and allow the slides to cool for 20 minutes. After epitope retrivals, sections were immunostained as following steps:
# Incubate sections with methanol and 0.3% H2O2 for 30 minutes for blocking endogenous peroxidase activity at room temperature and rinse in 0.01M phosphate buffered saline (PBS; pH 7.2) for 3 times;
# Incubate sections with normal horse serum blocking solution (Vector Lab. Inc., Burlingame, USA. Dilution 1:100) for 1 hour to block non-specific binding of immunoglobulin at room temperature in humidity chamber, and rinse in 0.01M PBS for 3 times;
# Incubate sections with primary antisera for overnight at 4° C. in humidity chamber and rinse in 0.01M PBS for 3 times;
# Incubate sections with biotinylated universal secondary antibody (Vector Lab., Dilution 1:50) for 1 hour at room temperature in humidity chamber and rinse in 0.01M PBS for 3 times;
# Incubate sections with ABC reagents (Vectastain Elite ABC Kit, Vector Lab., Dilution 1:50) for 1 hour at room temperature in humidity chamber and rinse in 0.01M PBS for 3 times;
# Incubate sections in Peroxidae substrate kit (Vector Lab.) for 5 min at room temperature and rinse in 0.01M PBS for 3 times;
# Counterstain with Mayer's hematoxylin solution and rinse in running tap water for 30 minutes;
# Dehydrate through 95% ethanol for 2 minutes, 100% ethanol for 3 times and Clear in xylene for two times; and
# Coverslip with permanent mounting medium and observed under light microscope (Nikkon, Japan).
# Histomorphometry: The nerve cells occupied by over 10% of immunoreactivities, the density, of each antiserum, caspase-3 and PARP were regarded as immunoreactive. In the present study, the numbers of each caspase-3 and PARP-immunoreactive cells among mm^2 of ipsilateral peri-infarct/defect cerebral cortex were measured using a computer-assisted image analysis program, respectively.
# All data were expressed as mean±standard deviation (S.D.) of ten rats. Multiple comparison tests for different dose groups were conducted. Variance homogeneity was examined using the Levene test (Levene A, Clin Otalary, 1981; 6:145-51). […] Statistical analyses were conducted using SPSS (Release 14K, SPSS Inc., USA; Ludbrook, Clin Exp Pharmacol Physiol, 1997; 24:294-6). In addition, the percent changes between neuron apoptosis control and mirodenafil treated rats were calculated to help the understanding of the efficacy of test material as follow equation 3. Percentage changes as compared with neuron apoptosis control (%)=[((Data of mirodenafil treated groups−Data of neuron apoptosis control)/Data of neuron apoptosis control)×100] [EQUATION 3]
smiles,measurement,setting,value
"CCCOc1ccc(S(=O)(=O)N2CCN(CCO)CC2)cc1-c1nc2c(CCC)cn(CC)c2c(=O)[nH]1 [Mirodenafil, mirodenafil]","body weight gains during 29 days, change as compared with neuron apoptosis control",[1]; 1 mg/kg from 24 hrs after surgery,43.24%
same,"body weight gains during 29 days, change as compared with neuron apoptosis control",[1]; 1 mg/kg from 72 hrs after surgery,33.78%
same,"body weight gains during 29 days, change as compared with neuron apoptosis control",[1]; 1 mg/kg from 168 hrs after surgery,11.04%
same,Body weights at 29 days after surgery [B],[1]; start 24 hrs after operation,357.13 ± 15.38^ab g
same,Weight gains [B − A],[1]; start 24 hrs after operation,79.50 ± 14.09^ab g
same,Body weights at 29 days after surgery [B],[1]; start 72 hrs after operation,349.38 ± 10.28^ac g
same,Weight gains [B − A],[1]; start 72 hrs after operation,74.25 ± 14.95^ab g
same,Body weights at 29 days after surgery [B],[1]; start 168 hrs after operation,338.63 ± 15.26^a g
same,Weight gains [B − A],[1]; start 168 hrs after operation,61.63 ± 6.78^a g
same,Body weights at Before surgery,[1]; 1 mg/kg start 24 hrs group,307.75 ± 15.84 g
same,Body weights at surgery [A],[1]; 1 mg/kg start 24 hrs group,277.63 ± 15.07 g
same,Body weights at Before surgery,[1]; 1 mg/kg start 72 hrs group,307.25 ± 11.36 g
same,Body weights at surgery [A],[1]; 1 mg/kg start 72 hrs group,275.13 ± 12.21 g
same,Body weights at Before surgery,[1]; 1 mg/kg start 168 hrs group,307.88 ± 10.53 g
same,Body weights at surgery [A],[1]; 1 mg/kg start 168 hrs group,277.00 ± 10.41 g
same,solubility in saline,[2],well dissolved in saline
same,"numbers of PARP-immunoreactive neurons, change as compared with neuron apoptosis control",PARP; 0.5 mg/kg,−37.58%
same,Numbers of neurons: PARP+,PARP; 0.5 mg/kg s.c. once a day,47.50 ± 9.44^ab cells/mm^2 of cerebral cortex
same,"numbers of PARP-immunoreactive neurons, change as compared with neuron apoptosis control",PARP; 1 mg/kg,−76.74%
same,Numbers of neurons: PARP+,PARP; 1 mg/kg s.c. once a day,17.70 ± 2.00^ab cells/mm^2 of cerebral cortex
same,"numbers of PARP-immunoreactive neurons, change as compared with neuron apoptosis control",PARP; 2 mg/kg,−78.32%
same,Numbers of neurons: PARP+,PARP; 2 mg/kg s.c. once a day,16.50 ± 3.81^ab cells/mm^2 of cerebral cortex
